Type in all cases: cell-based, influenza virus
The test system of experiment [1] is A/Mississippi/3/2001 (H1N1) mutant strain with the H275Y mutation in the NA gene.
Experiment [2] has as its system rgA/Giessen/6/09 (H1N1)-PA-I38T.
In experiment [3] the test system is rgA/Victoria/3/75 (H3N2-PA-I38T).

From patent US20220370384A1, “COMBINATIONS OF MEK INHIBITORS WITH CAP-DEPENDENT ENDONUCLEASE INHIBITORS” (priority 2019, published 2022) come the findings set out here.

In the case of `O=C(NOCC1CC1)c1ccc(F)c(F)c1Nc1ccc(I)cc1Cl` [CI-1040], the antiviral effectiveness entry in experiment [1] is reported as “comparable antiviral effect”.
On the same count and under the same terms, to `CCOC(=O)C1=C[C@@H](OC(CC)CC)[C@H](NC(C)=O)[C@@H](N)C1` [oseltamivir] belongs “significant reduction in oseltamivir effectiveness”.
In the case of `COC(=O)OCOc1c2n(ccc1=O)N([C@@H]1c3ccccc3SCc3c1ccc(F)c3F)[C@@H]1COCCN1C2=O` [BLXM], the “activity lower when investigated using the mutant strain” value in experiment [2] came to 37%. In experiment [3], the “activity lost in the mutant variant” value is “about 41%”.
`O=C(O)c1ccc(F)c(F)c1Nc1ccc(I)cc1Cl` [ATR002, 2-(2-chloro-4-iodophenylamino)-N-3,4-difluoro benzoic acid]: the “antiviral effect in mutant strain compared with wild type” value in experiment [2] is “steady effect as found in the wild type”. The antiviral activity result in experiment [3] was “revealed its potency against both variants”.
